Laboratory results reported in patent US20120014956A1, “METHODS AND COMPOSITIONS FOR PREDICTING RESPONSIVENESS TO TREATMENT WITH TNF-ALPHA INHIBITOR” (priority 2010, published 2012).

Assays:
patients with early RA [1] = experiment: OPTIMA genetic substudy: ACR20/50/70 response at Week 26; format: in vivo, human; details: for ACR50, % / ACR50, n/N: 26 weeks; for ACR20 Response Rates at Week 26 (title; column head ACR70), % subjects / ACR20 Response Rates at Week 26 (title; column head ACR70), n/N subjects: Table 6a; for ACR20 Response Rates at Week 26 (title; column head ACR70), % subjects / ACR20 Response Rates at Week 26 (title; column head ACR70), n/N subjects / ACR50 response rate, % subjects / ACR50 response, n/N subjects / ACR70 response rate, % subjects / ACR70 response, n/N subjects / ACR20 response rate, % subjects / ACR20 response, n/N subjects: Week 26
Description: (§1) The objective of the study was to prospectively analyze the association of 3 genetic risk factors (HLA-DRB1 shared epitope (SE), FcγRIIb, and IL-4R) for severe RA with clinical disease activity after 26 weeks of combination therapy with adalimumab (ADA) and methotrexate (MTX) or MTX monotherapy in a substudy of OPTIMA (A Multicentre, Randomized, Double Period, Double-Blind Study to Determine the Optimal Protocol for Treatment Initiation With Methotrexate and Adalimumab Combination Therapy in Patients With Early Rheumatoid Arthritis).
(§2) OPTIMA is an ongoing 78-week study with 26- and 52-week periods. Eligible patients had RA<1 year (1987-revised ACR classification), 28-joint Disease Activity Score (DAS28)>3.2, ≧6 swollen joints […], and ≧8 tender joints (SSJC66≧8). Patients had elevated erythrocyte sedimentation rate (ESR)≧28 mm/h or C-reactive protein (CRP)≧1.5 mg/dL and ≧1 of the following: >1 erosion, rheumatoid-factor positive (RF+), or anti-cyclic citrullinated peptide antibody positive (anti-CCP+). Exclusion criteria included prior exposure to systemic anti-TNF therapies, treatment with MTX or >2 disease-modifying anti-rheumatic drugs (DMARDs), other acute inflammatory joint diseases, or steroidal or surgical treatment within 4 weeks or 2 months, respectively.
(§3) In Period 2, those combination therapy responders, e.g., meeting DAS28 low disease activity (LDA) criteria (DAS28<3.2), were re-randomized 1:1 to remain on ADA+MTX or to “step down” to PBO+MTX for Weeks 26-78. In the initial PBO+MTX monotherapy group, subjects who achieved DAS28 LDA after Period 1 remained blinded on PBO+MTX for Period 2. […] Genetic data were associated with Week-26 clinical response.
(§4) For clinical assessment, the percentage of subjects achieving a 20%, 50%, and 70% improvement from baseline ACR scores was determined after Week 26 using a non-responder imputation approach. DAS28(CRP)^1 scores were evaluated at Week 26. The proportion of subjects achieving LDA (DAS28<3.2) and remission criteria (DAS28<2.6) was determined using a non-responder imputation approach.
(§5) For statistical analyses, Allele distribution between treatment groups was evaluated using the chi-square test, or Fisher's exact test in cases where data were sparse. The chi-square test was used to compare the proportion of subject achieving ACR20/50/70 and DAS28 LDA (<3.2) or remission (<2.6) within and between treatment groups.
(§6) MTX-naïve patients were randomized 1:1 to ADA (40 mg eow)+MTX (titrated to 20 mg/wk by Week 8) or placebo (PBO)+MTX for the first 26 weeks.
(§7) The percentage of subjects achieving a 50% improvement in the ACR score from baseline was determined at Week 26 using a non-responder imputation approach. The percentage of subjects achieving DAS28(CRP) remission (DAS28<2.6) was determined at Week 26 using a non-responder imputation approach.
(§8) Allele distribution between treatment groups was evaluated using the chi-square test, or Fisher's exact test in cases where data were sparse. Multivariate logistic regression was used to evaluate the effect of treatment, individual alleles, the interaction between treatment and genetic components, and baseline demographics and disease characteristics on clinical responses at 26 weeks.
(§9) MTX-naïve pts ≧18 years old with RA<1 year and active disease (DAS28>3.2, ESR≧28 mm/h or CRP≧1.5 mg/dL), and either >1 erosions, RF+, or anti-CCP+ were randomized to ADA+MTX (N=515) or PBO+MTX (N=517) for 26 wks. This analysis presents clinical outcomes at 26 weeks by HLA-DRB1 SE copy number (0×, 1×, or 2×), IL-4R I50V (AA, AG, or GG), and FcγRIIb I232T (TT, TC, CC) alleles. Non-responder imputation was used to calculate the percent of patients achieving ACR20/50/70 and DAS28 low disease activity (LDA, DAS28<3.2) and remission (DAS28<2.6). Multiple logistic regression was used to assess the influence of potential confounding baseline variables. […]

patients with early RA [2] = experiment: OPTIMA genetic substudy: DAS28 low disease activity (<3.2) and remission (<2.6) at Week 26; format: in vivo, human
Description: as §1, §2, §3, §4, §5, §6, §7, §8, §9

[3] = HLA-DRB1 SE 0 copies, non-responder imputation

CN(Cc1cnc2nc(N)nc(N)c2n1)c1ccc(C(=O)N[C@@H](CCC(=O)O)C(=O)O)cc1 [PBO + MTX, methotrexate]
ACR50, % (patients with early RA [1]; IL-4R AA, HLA-DRB1 SE copy # 0): (44%)
ACR50, n/N (patients with early RA [1]; IL-4R AA, HLA-DRB1 SE copy # 0): 15/34
ACR50, % (patients with early RA [1]; IL-4R AA, HLA-DRB1 SE copy # 1): (41%)
ACR50, n/N (patients with early RA [1]; IL-4R AA, HLA-DRB1 SE copy # 1): 23/56
ACR50, % (patients with early RA [1]; IL-4R AA, HLA-DRB1 SE copy # 2): (30%)
ACR50, n/N (patients with early RA [1]; IL-4R AA, HLA-DRB1 SE copy # 2): 7/23
ACR50, % (patients with early RA [1]; IL-4R AG, HLA-DRB1 SE copy # 0): (42%)
ACR50, n/N (patients with early RA [1]; IL-4R AG, HLA-DRB1 SE copy # 0): 33/78
ACR50, % (patients with early RA [1]; IL-4R AG, HLA-DRB1 SE copy # 1): (37%)
ACR50, n/N (patients with early RA [1]; IL-4R AG, HLA-DRB1 SE copy # 1): 34/92
ACR50, % (patients with early RA [1]; IL-4R AG, HLA-DRB1 SE copy # 2): (38%)
ACR50, n/N (patients with early RA [1]; IL-4R AG, HLA-DRB1 SE copy # 2): 12/32
ACR50, % (patients with early RA [1]; IL-4R GG, HLA-DRB1 SE copy # 0): (47%)
ACR50, n/N (patients with early RA [1]; IL-4R GG, HLA-DRB1 SE copy # 0): 18/38
ACR50, % (patients with early RA [1]; IL-4R GG, HLA-DRB1 SE copy # 1): (40%)
ACR50, n/N (patients with early RA [1]; IL-4R GG, HLA-DRB1 SE copy # 1): 14/35
ACR50, % (patients with early RA [1]; IL-4R GG, HLA-DRB1 SE copy # 2): (50%)
ACR50, n/N (patients with early RA [1]; IL-4R GG, HLA-DRB1 SE copy # 2): 1/2
association of FcγRIIb with 26-week response, multiple logistic regression (patients with early RA [1]; ADA+MTX: FcγRIIb-CC with ACR70 and DAS28 remission): failed to show a significant association
association of IL-4R with 26-week response, multiple logistic regression (patients with early RA [1]; IL-4R alone): failed to show a significant association
association of SE copy number with 26-week response, multiple logistic regression (patients with early RA [1]; PBO+MTX: ACR20 and ACR50, ADA+MTX: ACR20/50/70 and DAS28 LDA): significant negative effect
ACR20 Response Rates at Week 26 (title; column head ACR70), % subjects (patients with early RA [1]; IL-4R AA): (13%)
ACR20 Response Rates at Week 26 (title; column head ACR70), n/N subjects (patients with early RA [1]; IL-4R AA): 17/130
ACR20 Response Rates at Week 26 (title; column head ACR70), % subjects (patients with early RA [1]; IL-4R AG): (19%)
ACR20 Response Rates at Week 26 (title; column head ACR70), n/N subjects (patients with early RA [1]; IL-4R AG): 42/233
ACR20 Response Rates at Week 26 (title; column head ACR70), % subjects (patients with early RA [1]; IL-4R GG): (18%)
ACR20 Response Rates at Week 26 (title; column head ACR70), n/N subjects (patients with early RA [1]; IL-4R GG): 16/88
ACR50 response rate, % subjects (patients with early RA [1]; HLA-DRB1 SE 0 copies): (40%)
ACR50 response, n/N subjects (patients with early RA [1]; HLA-DRB1 SE 0 copies): 66/167
ACR70 response rate, % subjects (patients with early RA [1]; HLA-DRB1 SE 0 copies): (19%)
ACR70 response, n/N subjects (patients with early RA [1]; HLA-DRB1 SE 0 copies): 31/157
ACR50 response rate, % subjects (patients with early RA [1]; HLA-DRB1 SE 0 copies, listed as MTX): 40%
ACR20 response rate, % subjects (patients with early RA [1]; [3]): (63%)
ACR20 response, n/N subjects (patients with early RA [1]; [3]): 105/167
ACR20 response rate, % subjects (patients with early RA [1]; HLA-DRB1 SE 1 copy): (54%)
ACR20 response, n/N subjects (patients with early RA [1]; HLA-DRB1 SE 1 copy): 115/215
ACR50 response rate, % subjects (patients with early RA [1]; HLA-DRB1 SE 1 copy): (33%)
ACR50 response, n/N subjects (patients with early RA [1]; HLA-DRB1 SE 1 copy): 71/215
ACR70 response rate, % subjects (patients with early RA [1]; HLA-DRB1 SE 1 copy): (17%)
ACR70 response, n/N subjects (patients with early RA [1]; HLA-DRB1 SE 1 copy): 36/215
ACR50 response rate, % subjects (patients with early RA [1]; HLA-DRB1 SE 1 copy, listed as MTX): 33%
ACR20 response rate, % subjects (patients with early RA [1]; HLA-DRB1 SE 2 copies): (52%)
ACR20 response, n/N subjects (patients with early RA [1]; HLA-DRB1 SE 2 copies): 36/69
ACR50 response rate, % subjects (patients with early RA [1]; HLA-DRB1 SE 2 copies): (29%)
ACR50 response, n/N subjects (patients with early RA [1]; HLA-DRB1 SE 2 copies): 20/69
ACR70 response rate, % subjects (patients with early RA [1]; HLA-DRB1 SE 2 copies): (13%)
ACR70 response, n/N subjects (patients with early RA [1]; HLA-DRB1 SE 2 copies): 9/69
ACR50 response rate, % subjects (patients with early RA [1]; HLA-DRB1 SE 2 copies, listed as MTX): 29%
ACR50 response rate, % subjects (patients with early RA [1]; IL-4R AA): (35%)
ACR50 response, n/N subjects (patients with early RA [1]; IL-4R AA): 45/130
ACR70 response rate, % subjects (patients with early RA [1]; IL-4R AA): (13%)
ACR70 response, n/N subjects (patients with early RA [1]; IL-4R AA): 17/130
ACR50 response rate, % subjects (patients with early RA [1]; IL-4R AG): (34%)
ACR50 response, n/N subjects (patients with early RA [1]; IL-4R AG): 79/233
ACR70 response rate, % subjects (patients with early RA [1]; IL-4R AG): (19%)
ACR70 response, n/N subjects (patients with early RA [1]; IL-4R AG): 42/233
ACR50 response rate, % subjects (patients with early RA [1]; IL-4R GG): (38%)
ACR50 response, n/N subjects (patients with early RA [1]; IL-4R GG): 33/88
ACR70 response rate, % subjects (patients with early RA [1]; IL-4R GG): (18%)
ACR70 response, n/N subjects (patients with early RA [1]; IL-4R GG): 16/88
LDA DAS28 <3.2, % subjects (patients with early RA [2]; HLA-DRB1 SE 0 copies): (30%)
LDA DAS28 <3.2, n/N subjects (patients with early RA [2]; HLA-DRB1 SE 0 copies): 49/167
Remission DAS28 <2.6, % subjects (patients with early RA [2]; HLA-DRB1 SE 0 copies): (17%)
Remission DAS28 <2.6, n/N subjects (patients with early RA [2]; HLA-DRB1 SE 0 copies): 28/167
LDA DAS28 <3.2, % subjects (patients with early RA [2]; HLA-DRB1 SE 1 copy): (23%)
LDA DAS28 <3.2, n/N subjects (patients with early RA [2]; HLA-DRB1 SE 1 copy): 50/215
Remission DAS28 <2.6, % subjects (patients with early RA [2]; HLA-DRB1 SE 1 copy): (16%)
Remission DAS28 <2.6, n/N subjects (patients with early RA [2]; HLA-DRB1 SE 1 copy): 35/215
LDA DAS28 <3.2, % subjects (patients with early RA [2]; HLA-DRB1 SE 2 copies): (24%)
LDA DAS28 <3.2, n/N subjects (patients with early RA [2]; HLA-DRB1 SE 2 copies): 16/69
Remission DAS28 <2.6, % subjects (patients with early RA [2]; HLA-DRB1 SE 2 copies): (16%)
Remission DAS28 <2.6, n/N subjects (patients with early RA [2]; HLA-DRB1 SE 2 copies): 11/69
LDA DAS28 <3.2, % subjects (patients with early RA [2]; IL-4R AA): (24%)
LDA DAS28 <3.2, n/N subjects (patients with early RA [2]; IL-4R AA): 31/130
Remission DAS28 <2.6, % subjects (patients with early RA [2]; IL-4R AA): (14%)
Remission DAS28 <2.6, n/N subjects (patients with early RA [2]; IL-4R AA): 18/130
LDA DAS28 <3.2, % subjects (patients with early RA [2]; IL-4R AG): (25%)
LDA DAS28 <3.2, n/N subjects (patients with early RA [2]; IL-4R AG): 58/233
Remission DAS28 <2.6, % subjects (patients with early RA [2]; IL-4R AG): (16%)
Remission DAS28 <2.6, n/N subjects (patients with early RA [2]; IL-4R AG): 37/233
LDA DAS28 <3.2, % subjects (patients with early RA [2]; IL-4R GG): (30%)
LDA DAS28 <3.2, n/N subjects (patients with early RA [2]; IL-4R GG): 26/88
Remission DAS28 <2.6, % subjects (patients with early RA [2]; IL-4R GG): (22%)
Remission DAS28 <2.6, n/N subjects (patients with early RA [2]; IL-4R GG): 19/88
